The record followed here is patent publication US4216314A, “N-Aryloxypropyl-N'-dioxopyrimidyl-α,ω-alkylenediamines” (Cassella Farbwerke Mainkur Aktiengesellschaft, priority 1977, dated 1980).

A value given as a limit tells only on which side of the number the result lay.

The target in assay [1] is T1, β1 -receptors of the heart (Canis lupus familiaris, UniProt P79148).
T1 construct: from tissue; host or cells: heart (left ventricle) of anaesthetised mongrel dogs, in vivo
The assay is described as follows: inhibition of isoproterenol effect on dp/dtmax of left ventricle (β1-receptors of the heart) in anaesthetised dogs. The assay is classed as in vivo, mongrel dogs. The settings on record: for ED50: dog, cumulative intravenous dose for 50% inhibition of effect of isoproterenol (0.5 gamma/kg i.v.) on dp/dtmax, chloralose/urethane/morphine anaesthesia, read-out: ED50 β1 mg/kg intravenously; for ratio of the doses, ED50 β2 / ED50 β1 (head is drawing 43): number significantly >1 indicates cardioselective action. Here is the method:
(§1) Pharmacological tests for activity towards β1 -receptors and β2 -receptors were carried out on mongrel dogs of both sexes under chloralose/urethane/morphine anaesthesia. The pressure in the left ventricle was recorded by means of a catheter tip manometer (micro-tip pressure transducer, MILLAR Instruments, Houston, Texas). The pressure signal was continuously differentiated by means of an analog computer and recorded (BRUSH Instruments, Cleveland, Ohio). The flow of blood through an arteria femoralis was measured and recorded by means of an electromagnetic flow meter (Messrs. STATHAM, Model M4000). Injection catheters were fastened to a peripheral vein and into a branch of the a. femoralis.
(§2) Isoproterenol was injected intravenously (0.5 gamma/kg) and intraarterially (0.05 gamma/kg). The effect of the isoproterenol on the dp/dtmax in the case of intravenous administration was considered to be an expression of the stimulation of the β1 -receptors of the heart. The change in the flow of blood through the arteria femoralis in the case of intraarterial injection of isoproterenol was considered to be an expression of the stimulation of the peripheral β2 -receptors (D-DUNLOP and R. G. SHANKS, "Selective Blockade of Adrenoceptive beta-Receptors in the Heart", Br. J. Pharmac. Chemother., 32, 201 to 218, 1968). The percentage inhibition of the effects of isoproterenol with respect to the cumulative doses of the test substance was determined. The cumulative doses of the test substance which leads to 50% inhibition of the isoproterenol effects (=ED50) was determined by means of a modified probit analysis. Substances which inhibit the isoproterenol effects on the dp/dtmax (β1) at a low dose and only decrease the change in the flow of blood through the a. femoralis at higher doses (β2) preferentially act on the β1 -receptors of the heart. The ratio of the doses. [formula] should be as high as possible.

Assay [2] has as its target T2, peripheral β2 -receptors (Canis lupus familiaris, UniProt P54833).
T2 construct: from tissue; host or cells: femoral arterial bed of anaesthetised mongrel dogs, in vivo
The assay is described as follows: inhibition of isoproterenol effect on blood flow through arteria femoralis (peripheral β2-receptors) in anaesthetised dogs. The assay is classed as in vivo, mongrel dogs. The settings on record: dog; cumulative intravenous dose for 50% inhibition of effect of isoproterenol (0.05 gamma/kg intraarterially) on blood flow through a. femoralis; chloralose/urethane/morphine anaesthesia; read-out: ED50 β2 mg/kg intraveneously. Here is the method: as §1, §2

T1 sequence (P79148 whole entry): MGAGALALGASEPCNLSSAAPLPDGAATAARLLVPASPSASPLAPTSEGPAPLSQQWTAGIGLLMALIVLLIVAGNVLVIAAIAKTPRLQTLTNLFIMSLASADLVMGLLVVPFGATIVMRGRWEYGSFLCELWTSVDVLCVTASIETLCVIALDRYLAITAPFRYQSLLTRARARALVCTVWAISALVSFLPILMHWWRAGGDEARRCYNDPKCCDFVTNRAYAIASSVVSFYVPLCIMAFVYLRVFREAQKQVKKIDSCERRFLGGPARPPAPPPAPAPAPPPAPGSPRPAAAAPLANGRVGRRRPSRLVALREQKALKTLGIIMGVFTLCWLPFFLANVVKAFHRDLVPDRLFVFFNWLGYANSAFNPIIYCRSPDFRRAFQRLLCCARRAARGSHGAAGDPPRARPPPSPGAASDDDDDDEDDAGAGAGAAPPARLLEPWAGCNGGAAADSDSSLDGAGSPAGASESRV
T2 sequence (P54833 whole entry): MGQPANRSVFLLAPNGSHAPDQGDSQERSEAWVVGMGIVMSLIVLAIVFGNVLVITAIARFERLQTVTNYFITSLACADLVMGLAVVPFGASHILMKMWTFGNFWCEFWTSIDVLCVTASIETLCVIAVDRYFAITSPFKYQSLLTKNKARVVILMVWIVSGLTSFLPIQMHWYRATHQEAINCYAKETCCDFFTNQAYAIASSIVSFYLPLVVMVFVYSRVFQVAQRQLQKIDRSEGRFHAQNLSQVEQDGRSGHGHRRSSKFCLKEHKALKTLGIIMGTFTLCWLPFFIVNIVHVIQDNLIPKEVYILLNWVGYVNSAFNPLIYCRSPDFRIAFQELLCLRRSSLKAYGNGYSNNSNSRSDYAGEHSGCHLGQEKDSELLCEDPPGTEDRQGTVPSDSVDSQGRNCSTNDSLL

As to `COc1ccc(OCC(O)CNCCNc2cc(=O)n(C)c(=O)n2C)cc1` (stereo not drawn) [Example 11], in assay [1], the ED50 was determined as 0.0157 mg/kg and the “ratio of the doses, ED50 β2 / ED50 β1 (head is drawing 43)” value is reported as 341. Also, in assay [2], the ED50 was found to be 5.36 mg/kg.
The like results for `CCCOc1ccc(OCC(O)CNCCNc2cc(=O)n(C)c(=O)n2C)cc1` (stereo not drawn) [Example 12] were, in that order, 0.0061 mg/kg, > 1,000 and above 7.3 mg/kg.
The like results for `CCCCOc1ccc(OCC(O)CNCCNc2cc(=O)n(C)c(=O)n2C)cc1` (stereo not drawn) [Example 13] were, in that order, 0.0096 mg/kg, > 1,000 and above 9.6 mg/kg.
For the compound `Cn1c(NCCNCC(O)COc2ccc(OCCO)cc2)cc(=O)n(C)c1=O` (stereo not drawn) [Example 14], in assay [1], the ED50 turned out to be 0.0291 mg/kg and the “ratio of the doses, ED50 β2 / ED50 β1 (head is drawing 43)” value is given as 303. For the same compound, the ED50 in assay [2] is 8.83 mg/kg.
The like results for `Cn1c(NCCNCC(O)COc2ccc(OCc3ccccc3)cc2)cc(=O)n(C)c1=O` (stereo not drawn) [Example 19] were, in that order, 0.0139 mg/kg, 322 and 4.48 mg/kg.
